Values of other authors in patent US6399093B1, “Method and composition to treat musculoskeletal disorders” (Advanced Medical Instruments, priority 1999, dated 2002).
One block for each molecule: values may come before it.

Experiments:
[1] = oral
[2] = oral diclofenac group
[3] = after oral administration

Compound: COc1cc2c(c(OC)c1OC)-c1ccc(OC)c(=O)cc1[C@@H](NC(C)=O)CC2 [colchicine, Colchicine]
Patients unable to tolerate an optimal dose because of gastrointestinal side effects [1]: Eighty

Number of GI reactions relative to the topical eltenac group [2]: three
Compound: O=C(O)Cc1ccccc1Nc1c(Cl)cccc1Cl [diclofenac]

Compound: N[C@H]1C(O)O[C@H](CO)[C@@H](O)[C@@H]1O.O=S(=O)(O)O (stereo partly drawn) [glucosamine sulfate]
Onset of clinical improvement of symptoms [3]: one
